Test results: the NIST ThermoML archive (doi:10.1021/je5010643)

Columns and labels:
[1] = refractive index (Na D-line) (dimensionless); settings: 101.32 kPa, Liquid, Standard Abbe refractometry
[2] = 101.32 kPa, Liquid; for speed of sound: Frequency=3 MHz, Linear variable-path acoustic interferometer
[3] = xn = mol fraction of the nth substance listed; settings: 101.32 kPa, Liquid, x1 = 1; for speed of sound: Frequency=3 MHz, Linear variable-path acoustic interferometer
[4] = refractive index (Na D-line) (dimensionless); xn = mol fraction of the nth substance listed; settings: 101.32 kPa, Liquid, Standard Abbe refractometry, x1 = 1

C1COCCO1 [1,4-dioxane]
Settings | mass density, [2] [kg/m3] | refractive index, [1] | speed of sound, [2] [m/s]
295.15 K | 1030.86 | 1.4211 | 1357.7
298.15 K | 1027.59 | 1.4197 | 1344.8
301.15 K | 1024.32 | 1.4183 | 1331.9
304.15 K | 1021.05 | 1.4168 | 1319
307.15 K | 1017.78 | 1.4154 | 1306.2
310.15 K | 1014.51 | 1.4138 | 1293.3
313.15 K | 1011.24 | 1.4124 | 1280.4

C1COCCO1 [1,4-dioxane] + CC(C)C(=O)O
Settings | mass density, [3] [kg/m3] | refractive index, [4] | speed of sound, [3] [m/s]
295.15 K | 1030.86 | 1.4211 | 1357.7
298.15 K | 1027.59 | 1.4197 | 1344.8
301.15 K | 1024.32 | 1.4183 | 1331.9
304.15 K | 1021.05 | 1.4168 | 1319
307.15 K | 1017.78 | 1.4154 | 1306.2
310.15 K | 1014.51 | 1.4138 | 1293.3
313.15 K | 1011.24 | 1.4124 | 1280.4

CC(C)C(=O)O [2-methylpropanoic acid]
Settings | mass density, [2] [kg/m3] | refractive index, [1] | speed of sound, [2] [m/s]
295.15 K | 945.28 | 1.3919 | 1100.2
298.15 K | 942.22 | 1.3907 | 1086
301.15 K | 939.16 | 1.3895 | 1072.1
304.15 K | 936.1 | 1.3883 | 1058.2
307.15 K | 933.04 | 1.3872 | 1043.4
310.15 K | 929.98 | 1.386 | 1030.8
313.15 K | 926.92 | 1.3849 | 1015.2
